Key:
[1] = target: T1, water-insoluble glucan producing enzyme (Streptococcus downei, UniProt P27470); assay: Effect of saccharides on formation of water-insoluble glucan from sucrose (Experiment 3); format: biochemical, Streptococcus mutans 6715 strain; conditions: 1 ml 4 w/v % sucrose plus 1 ml 4 w/v % saccharide, 0.02 units enzyme, 37° C., 16 hours; for A: amounts of water-insoluble glucan formed: sucrose control 300
T1 construct: endogenous in cells; host or cells: Streptococcus mutans 6715 strain (today S. sobrinus), culture supernatant, ammonium sulfate precipitate, dialyzed
T1 sequence (P27470 39-1592): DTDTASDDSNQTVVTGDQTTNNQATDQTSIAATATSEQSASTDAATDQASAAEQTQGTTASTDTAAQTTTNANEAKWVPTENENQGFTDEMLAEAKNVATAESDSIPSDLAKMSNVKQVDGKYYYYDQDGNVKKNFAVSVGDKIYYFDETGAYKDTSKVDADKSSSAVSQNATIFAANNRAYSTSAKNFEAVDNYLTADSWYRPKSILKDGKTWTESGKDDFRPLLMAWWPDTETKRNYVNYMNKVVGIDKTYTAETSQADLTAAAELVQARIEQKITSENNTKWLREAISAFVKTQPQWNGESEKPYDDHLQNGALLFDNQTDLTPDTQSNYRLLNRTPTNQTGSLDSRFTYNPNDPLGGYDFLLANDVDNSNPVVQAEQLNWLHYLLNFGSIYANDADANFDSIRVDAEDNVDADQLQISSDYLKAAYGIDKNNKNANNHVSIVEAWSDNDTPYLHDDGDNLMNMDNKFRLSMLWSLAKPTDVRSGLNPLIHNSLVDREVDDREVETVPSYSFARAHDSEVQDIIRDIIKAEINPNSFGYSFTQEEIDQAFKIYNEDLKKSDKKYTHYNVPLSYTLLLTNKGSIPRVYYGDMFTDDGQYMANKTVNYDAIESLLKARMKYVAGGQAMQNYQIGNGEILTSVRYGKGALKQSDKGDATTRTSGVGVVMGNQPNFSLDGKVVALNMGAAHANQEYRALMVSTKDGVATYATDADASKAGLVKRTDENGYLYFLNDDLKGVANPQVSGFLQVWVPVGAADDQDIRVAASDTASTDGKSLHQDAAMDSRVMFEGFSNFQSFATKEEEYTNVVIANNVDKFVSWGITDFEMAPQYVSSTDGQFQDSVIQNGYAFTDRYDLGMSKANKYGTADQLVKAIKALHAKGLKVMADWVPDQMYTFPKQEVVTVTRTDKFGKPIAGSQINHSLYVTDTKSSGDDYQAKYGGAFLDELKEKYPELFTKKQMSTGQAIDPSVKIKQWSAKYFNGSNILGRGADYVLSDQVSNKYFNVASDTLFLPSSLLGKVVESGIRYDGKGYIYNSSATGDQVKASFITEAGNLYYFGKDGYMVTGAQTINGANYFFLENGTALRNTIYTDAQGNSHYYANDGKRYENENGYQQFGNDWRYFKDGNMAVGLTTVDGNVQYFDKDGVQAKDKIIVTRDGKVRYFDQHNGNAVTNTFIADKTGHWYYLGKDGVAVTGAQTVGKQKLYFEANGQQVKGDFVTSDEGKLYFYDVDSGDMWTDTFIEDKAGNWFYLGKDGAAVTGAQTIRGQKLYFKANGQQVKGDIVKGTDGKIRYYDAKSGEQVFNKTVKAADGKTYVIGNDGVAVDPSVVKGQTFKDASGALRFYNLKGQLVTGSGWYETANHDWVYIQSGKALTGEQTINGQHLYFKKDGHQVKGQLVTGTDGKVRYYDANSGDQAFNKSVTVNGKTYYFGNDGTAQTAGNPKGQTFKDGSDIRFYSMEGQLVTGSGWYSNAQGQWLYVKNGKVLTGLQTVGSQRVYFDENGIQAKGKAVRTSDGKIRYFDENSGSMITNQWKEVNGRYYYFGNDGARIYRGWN
Procedure: After completion of the cultivation, the culture was separated into cell precipitant and supernatant. Thereafter, to the supernatant was added with ammonium sulfate to give 60% saturation, and the resultant precipitant was dialyzed against 0.1M phosphate buffer (pH 7.2) to obtain an aqueous solution containing the enzyme.
The titers of the enzyme were assayed as follows: A mixture solution, consisting of 1 ml of 0.2M aqueous sucrose solution, 1 ml of water, 1 ml of 0.1M phosphate buffer containing 0.05 w/v % NaN3, and 0.5 ml of the enzyme solution (below 0.05 units), is incubated at 37° C. for 9 hours, followed by centrifugation of the reaction mixture. The resultant precipitant is mixed with 4 ml of 0.5N sodium hydroxide solution, and then incubated at this temperature for an additional one hour to dissolve the precipitant. The amount of water-insoluble glucan formed during the enzymatic reaction is then measured. One unit of the enzyme is defined as the amount of enzyme that transfers 1 μmole glucose from sucrose to the water-insoluble glucan in one minute.
Effects of some saccharides on the formation of water-insoluble glucan were tested: Water-insoluble glucan formation and inhibition thereof were determined according to the enzyme assay method as described in EXPERIMENT 1, except that the mixture solution contained sucrose, or sucrose and each saccharide as listed in TABLE I. The experiment was carried out as follows: A mixture solution, consisting of 1 ml of 4 w/v % aqueous sucrose solution, 1 ml of 4 w/v % aqueous solution of each saccharide as listed in TABLE I, 1.5 ml of 0.1M phosphate buffer containing 0.05 w/v % NaN3, and 0.5 ml of the enzyme solution (0.02 units), was incubated at 37° C. for 16 hours, and the water-insoluble glucan formation in the reaction mixture was determined according to the enzyme assy method.
In a control experiment, 1 ml of the above described saccharide solution was replaced with the same amount of water.
The inhibition degree was calculated with following equation:
Inhibition degree (%)=100-A/B×100
where A and B are respective amounts of the water-insoluble glucan formed (μg/ml) when the mixture solution contained sucrose or sucrose and each of the saccharides.

[2] = tested on: Streptococcus mutans 6715 strain; assay: Organic acid formation from saccharides by Streptococcus mutans cells, pH-measurement (Experiment 4); format: cell-based; conditions: 37° C., 30 minutes; for organic acid formation from the saccharide: Streptococcus mutans 6715 cells; for pH-Level of the reaction mixture (organic acid formation): cell suspension, Stephan's buffer (pH 7.0), saccharide solution
Procedure: Organic acid formation from some saccharides by Streptococcus mutans was tested: Streptococcus mutans 6715 strain was cultivaed similarly as in EXPERIMENT 1, and the cells, obtained by centrifuging the culture, were washed with 0.9 w/v % sodium chloride solution, followed by additional centrifugation. Two ml of a mixture solution, consisting of 0.2 ml of the cell suspension, prepared from about 100 ml of the culture, 1.5 ml of Stephan's buffer, and 0.3 ml aqueous solution of each saccharide as listed in TABLE II, was incubated at 37° C. for 30 minutes, followed by pH-measurement of the reaction mixture. The Stephan's buffer was prepared by the method as reported by R. M. Stephan et al., Journal of Dental Research, Vol.26, pp.15-41 (1947): One ml of Solution I, prepared by dissolving 17.89 g Na2 HPO4. 12H2 O, 7.92 g KOH and 6.81 g KH2 PO4 in water to give a final volume of 100 ml, was placed in a 100-ml volumetric flask, and mixed with about 90 ml of water. To the flask was added 1 ml of Solution II, prepared by dissolving 4.54 g KH2 PO4, 0.32 g MgSO4.7H2 O, 0.57 g CaSO4.2H2 O and 10 ml of 3.5% hydrochloric acid solution in water to give a final volume of 100 ml. This mixture was diluted with additional water to obtain 100 ml of Stephan's buffer (pH 7.0).
The results are given in TABLE II, wherein the organic acid formation from the saccharides can be estimated by the pH-values.

[3] = target: T1, water-insoluble glucan producing enzyme; assay: Effect of saccharides on formation of water-insoluble glucan from sucrose (Experiment 3); format: biochemical, Streptococcus mutans 6715 strain; conditions: saccharide reduced to 10% against sucrose: 1 ml 4 w/v % sucrose plus 1 ml 0.4 w/v % saccharide, 37° C., 16 hours

Row | Compound | A: amounts of water-insoluble glucan formed [1] [µg/mL] | organic acid formation from the saccharide [2] | pH-Level of the reaction mixture (organic acid formation) [2] | C: inhibition degree of water-insoluble glucan formation [3] [%] | C: inhibition degree of water-insoluble glucan formation ([3]; listed as isomaltopentaose) | C: inhibition degree of water-insoluble glucan formation ([3]; listed as isomaltosyl maltose) | C: inhibition degree of water-insoluble glucan formation ([3]; listed as isomaltotetraose) | B: inhibition degree on water-insoluble glucan formation [1] [%]
1 | OC[C@H]1O[C@H](OC[C@H]2O[C@H](OC[C@H]3O[C@H](OC[C@H]4O[C@H](OC[C@H]5OC(O)[C@H](O)[C@@H](O)[C@@H]5O)[C@H](O)[C@@H](O)[C@@H]4O)[C@H](O)[C@@H](O)[C@@H]3O)[C@H](O)[C@@H](O)[C@@H]2O)[C@H](O)[C@@H](O)[C@@H]1O (stereo partly drawn) [Isomaltopentaose, 6^3 -O-α-isomaltosyl isomaltotriose] | 15 | no organic acid formation | 7.0 | 60 | 45-60% |  |  | 
2 | OC[C@H]1O[C@H](OC[C@H]2O[C@H](O[C@H]3[C@H](O)[C@@H](O)[C@@H](O[C@H]4[C@H](O)[C@@H](O)C(O)O[C@@H]4CO)O[C@@H]3CO)[C@H](O)[C@@H](O)[C@@H]2O)[C@H](O)[C@@H](O)[C@@H]1O (stereo partly drawn) [Isomaltosyl maltose, 4^2 -O-α-isomaltosyl maltose] | 24 | no organic acid formation | 7.0 | 55 |  | 45-60% |  | 
3 | OC[C@H]1O[C@H](OC[C@H]2O[C@H](OC[C@H]3O[C@H](OC[C@H]4OC(O)[C@H](O)[C@@H](O)[C@@H]4O)[C@H](O)[C@@H](O)[C@@H]3O)[C@H](O)[C@@H](O)[C@@H]2O)[C@H](O)[C@@H](O)[C@@H]1O (stereo partly drawn) [Isomaltotetraose, 6^2 -O-α-isomaltosyl isomaltose] | 18 | no organic acid formation | 7.0 | 58 |  |  | 45-60% | 
4 | OC[C@H]1O[C@H](O[C@H]2[C@H](O)[C@@H](O)[C@@H](O[C@H]3[C@H](O)[C@@H](O)[C@@H](O[C@H]4[C@H](O)[C@@H](O)[C@@H](O[C@H]5[C@H](O)[C@@H](O)C(O)O[C@@H]5CO)O[C@@H]4CO)O[C@@H]3CO)O[C@@H]2CO)[C@H](O)[C@@H](O)[C@@H]1O (stereo partly shown) [Maltopentaose] | 264 |  | 5.6 |  |  |  |  | 12
5 | OC[C@H]1O[C@H](O[C@H]2[C@H](O)[C@@H](O)[C@@H](O[C@H]3[C@H](O)[C@@H](O)[C@@H](O[C@H]4[C@H](O)[C@@H](O)C(O)O[C@@H]4CO)O[C@@H]3CO)O[C@@H]2CO)[C@H](O)[C@@H](O)[C@@H]1O (stereo partly shown) [Maltotetraose] | 255 |  | 5.3 |  |  |  |  | 15
6 | OC[C@@H](O)[C@@H](O[C@H]1O[C@H](CO)[C@@H](O[C@H]2O[C@H](CO)[C@@H](O)[C@H](O)[C@H]2O)[C@H](O)[C@H]1O)[C@H](O)[C@@H](O)CO [Maltotriitol] | 262 |  | 7.0 |  |  |  |  | 13
7 | OC[C@H]1O[C@H](O[C@H]2[C@H](O)[C@@H](O)[C@@H](O[C@H]3[C@H](O)[C@@H](O)C(O)O[C@@H]3CO)O[C@@H]2CO)[C@H](O)[C@@H](O)[C@@H]1O (stereo partly shown) [Maltotriose] | 213 |  | 5.0 |  |  |  |  | 29
8 | O=C(CO)[C@@H](O)[C@H](O[C@H]1O[C@H](CO)[C@@H](O)[C@H](O)[C@H]1O)[C@H](O)CO [Maltulose] | 180 |  | 7.0 |  |  |  |  | 40
9 | OC[C@@H](O)[C@@H](O)[C@H](O)[C@H](O)CO [Mannitol] | 286 |  | 7.0 |  |  |  |  | 5
10 | OC[C@H]1O[C@H](OC[C@H]2OC(O)[C@H](O)[C@@H](O)[C@@H]2O)[C@H](O)[C@@H](O)[C@H]1O (stereo partly shown) [Melibiose] | 300 |  | 7.0 |  |  |  |  | 
11 | CO[C@H]1O[C@H](CO)[C@@H](O)[C@H](O)[C@H]1O [Methyl-α-D-Glucose] |  |  | 7.0 |  |  |  |  | 14
12 | CC(=O)N[C@H]1C(O)O[C@H](CO)[C@@H](O)[C@@H]1O (stereo partly shown) [N--Acetyl glucosamine] | 285 |  | 7.0 |  |  |  |  | 5
13 | OC[C@@H](O)[C@@H](O[C@H]1O[C@H](CO[C@H]2O[C@H](CO)[C@@H](O)[C@H](O)[C@H]2O)[C@@H](O)[C@H](O)[C@H]1O)[C@H](O)[C@@H](O)CO [Pannitol, 4-O-α-isomaltosyl glucitol] | 70 | no organic acid formation | 7.0 |  |  |  |  | 
14 | C[C@@H]1OC(O)[C@H](O)[C@H](O)[C@H]1O (stereo partly drawn) [Rhamnose, L-Rhamnose] | 300 |  | 7.0 |  |  |  |  | 0
15 | OC[C@@H](O)[C@@H](O)[C@H](O)[C@@H](O)CO [Sorbitol] | 290 |  | 7.0 |  |  |  |  | 8
16 | OC[C@H]1O[C@H](O[C@H]2O[C@H](CO)[C@@H](O)[C@H](O)[C@H]2O)[C@H](O)[C@@H](O)[C@@H]1O [Trehalose] | 297 |  | 7.0 |  |  |  |  | 1
17 | O=C(CO)[C@@H](O[C@H]1O[C@H](CO)[C@@H](O)[C@H](O)[C@H]1O)[C@H](O)[C@H](O)CO [Turanose] | 273 |  | 7.0 |  |  |  |  | 9
18 | OC[C@@H](O)[C@H](O)[C@@H](O)CO [Xylitol] | 280 |  | 7.0 |  |  |  |  | 7
19 | Inulobiose | 276 |  | 4.5 |  |  |  |  | 8

From US4518581A, “Imparting low- or anti-cariogenic property to orally-usable products” (Kabushiki Kaisha Hayashibara Seibutsu Kagaku Kenkyujo, priority 1981, dated 1985)
